Source: US20260049084A1, “ENPP1 MODULATORS AND PRODUCTS AND USES THEREOF” (Gossamer Bio Services, Inc., priority 2022, published 2026)

Assays:
[1] = molecular target: carbonic anhydrase I enzyme (Homo sapiens (Human), UniProt P00915); assay: Carbonic Anhydrase 1 Enzymatic Assay; type: biochemical; details: enzyme from human erythrocyte, 500 μM 4-nitrophenyl acetate, absorbance 400 nm; read-out: CA I IC50
Method: Carbonic Anhydrase 1 Enzymatic Assay
(§1) Test compound and/or vehicle was preincubated with carbonic anhydrase I enzyme (15 μg/ml) isolated from human erythrocyte in reaction buffer (50 mM MOPS solution pH 7.5) for 15 minutes at 25° C. The reaction was initiated by addition of 500 μM 4-nitrophenyl acetate and incubated for 30 minutes. The plate was read on a spectrophotometer (Absorbance: 400 nm)

[2] = molecular target: Recombinant human ENPP3 protein (Homo sapiens (Human), UniProt O14638); assay: ENPP3 cGAMP Biochemical Assay; details: 70.5 nM ENPP3, 120 μM 2′3′-cGAMP substrate, TR-FRET
Procedure, shortened: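 Compound was preincubated 30 min at room temperature with recombinant human ENPP3 (final 70.5 nM) in Tris pH 7.5 with Mg, Ca, Zn and TCEP. 2′3′-cGAMP (120 μM final) was then hydrolysed for 60 min at 25 °C. AMP/GMP product was detected by TR-FRET tracer-displacement immunoassay after 120 min.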

[3] = molecular target: Recombinant human ENPP1 protein (Homo sapiens (Human), UniProt P22413); assay: ENPP1 cGAMP Biochemical Assay; details: 0.5 nM ENPP1, 1000 nM 2′3′-cGAMP substrate, TR-FRET
Procedure, shortened: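 Recombinant human ENPP1 (final 0.5 nM) preincubated with compound 30 min at room temperature in 50 mM Tris pH 7.5, 1 mM TCEP, 2 mM MgCl2, 0.005% Tween20; 2′3′-cGAMP (1000 nM final) added, 60 min at 25 °C. AMP/GMP product detected by TR-FRET antibody/tracer competition (2 nM), 120 min.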

[4] = molecular target: carbonic anhydrase II enzyme (Homo sapiens (Human), UniProt P00918); assay: Carbonic Anhydrase 2 Enzymatic Assay; type: biochemical; details: enzyme from human erythrocyte, 500 μM 4-nitrophenyl acetate, absorbance 400 nm; read-out: CA II IC50
Method: Carbonic Anhydrase 2 Enzymatic Assay
as §1, with “II” for “I”

Chain of Recombinant human ENPP3 protein (O14638 whole entry): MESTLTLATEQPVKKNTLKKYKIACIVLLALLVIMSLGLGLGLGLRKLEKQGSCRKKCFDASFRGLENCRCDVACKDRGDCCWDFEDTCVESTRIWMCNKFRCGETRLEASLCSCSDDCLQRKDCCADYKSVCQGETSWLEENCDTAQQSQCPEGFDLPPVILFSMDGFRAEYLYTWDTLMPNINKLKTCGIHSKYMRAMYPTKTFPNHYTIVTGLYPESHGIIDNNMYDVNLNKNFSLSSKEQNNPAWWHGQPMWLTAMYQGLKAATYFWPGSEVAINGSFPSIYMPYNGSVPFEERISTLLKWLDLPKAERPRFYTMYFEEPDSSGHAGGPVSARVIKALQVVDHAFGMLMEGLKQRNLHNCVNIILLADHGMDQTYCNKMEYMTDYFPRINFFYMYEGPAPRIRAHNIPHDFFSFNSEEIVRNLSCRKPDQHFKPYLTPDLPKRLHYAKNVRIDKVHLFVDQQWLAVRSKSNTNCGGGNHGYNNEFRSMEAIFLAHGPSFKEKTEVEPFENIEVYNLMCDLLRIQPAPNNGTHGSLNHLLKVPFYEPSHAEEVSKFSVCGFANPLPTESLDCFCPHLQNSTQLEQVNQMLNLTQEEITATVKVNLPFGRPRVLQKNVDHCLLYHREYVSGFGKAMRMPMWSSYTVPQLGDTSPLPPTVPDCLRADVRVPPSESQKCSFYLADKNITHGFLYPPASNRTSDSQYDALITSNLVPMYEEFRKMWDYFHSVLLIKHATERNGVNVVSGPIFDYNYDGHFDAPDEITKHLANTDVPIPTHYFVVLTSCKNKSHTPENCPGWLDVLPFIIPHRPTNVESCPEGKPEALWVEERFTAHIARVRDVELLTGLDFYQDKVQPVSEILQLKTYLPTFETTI
Chain of Recombinant human ENPP1 protein (P22413 whole entry): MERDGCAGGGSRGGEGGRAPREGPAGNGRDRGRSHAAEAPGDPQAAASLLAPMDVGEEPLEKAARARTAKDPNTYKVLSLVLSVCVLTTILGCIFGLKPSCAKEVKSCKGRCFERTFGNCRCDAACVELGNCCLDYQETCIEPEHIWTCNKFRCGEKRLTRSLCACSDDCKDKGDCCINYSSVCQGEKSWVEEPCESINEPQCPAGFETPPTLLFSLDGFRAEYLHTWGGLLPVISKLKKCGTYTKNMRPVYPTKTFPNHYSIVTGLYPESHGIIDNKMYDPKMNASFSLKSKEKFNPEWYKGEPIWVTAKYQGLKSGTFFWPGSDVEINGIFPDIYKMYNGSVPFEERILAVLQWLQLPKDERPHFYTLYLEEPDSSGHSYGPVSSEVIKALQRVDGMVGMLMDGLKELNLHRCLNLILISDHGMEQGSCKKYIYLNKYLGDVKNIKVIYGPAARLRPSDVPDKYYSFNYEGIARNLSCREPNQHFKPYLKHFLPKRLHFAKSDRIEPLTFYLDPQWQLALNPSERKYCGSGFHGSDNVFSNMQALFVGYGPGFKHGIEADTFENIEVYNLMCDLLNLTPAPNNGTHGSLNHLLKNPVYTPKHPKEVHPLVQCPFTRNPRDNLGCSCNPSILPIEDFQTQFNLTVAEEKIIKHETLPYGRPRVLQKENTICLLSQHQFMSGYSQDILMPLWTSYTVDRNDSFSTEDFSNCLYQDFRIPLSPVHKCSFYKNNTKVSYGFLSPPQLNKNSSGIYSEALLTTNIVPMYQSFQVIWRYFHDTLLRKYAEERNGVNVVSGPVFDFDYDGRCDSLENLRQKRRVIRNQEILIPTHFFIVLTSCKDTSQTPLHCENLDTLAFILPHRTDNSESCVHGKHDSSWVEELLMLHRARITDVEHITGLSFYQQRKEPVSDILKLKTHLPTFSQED
Chain of carbonic anhydrase I enzyme (P00915 whole entry): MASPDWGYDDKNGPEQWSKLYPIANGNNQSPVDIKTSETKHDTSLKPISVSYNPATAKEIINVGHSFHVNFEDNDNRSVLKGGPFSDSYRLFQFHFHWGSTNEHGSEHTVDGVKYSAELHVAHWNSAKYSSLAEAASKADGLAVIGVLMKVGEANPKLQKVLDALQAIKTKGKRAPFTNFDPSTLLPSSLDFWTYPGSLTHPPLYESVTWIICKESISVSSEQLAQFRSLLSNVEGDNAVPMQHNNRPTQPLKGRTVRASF

IC50 [1] [nM] | IC50 [2] [nM] | IC50 [3] [nM] | IC50 [4] [nM] | SMILES
100 to 1000 | 100 to 1000 | 10 to 100 | ≥ 1000 | CCn1ncc2c(NCC3CCN(S(=N)(N)=O)CC3)ccnc21 (centres unmarked) [Compound 1A, 4-(((1-ethyl-1H-pyrazolo[3,4-b]pyridin-4-yl)amino)methyl)piperidine-1-sulfonimidamide]
100 to 1000 | 10 to 100 | 10 to 100 | 100 to 1000 | N=S(N)(=O)c1ccc(CNc2ccnc3[nH]nc(-c4ccccc4)c23)cc1 (centres unmarked) [Compound 1B, 4-(((3-phenyl-1H-pyrazolo[3,4-b]pyridin-4-yl)amino)methyl)benzenesulfonimidamide]
100 to 1000 | ≥ 1000 | 10 to 100 | ≥ 1000 | CCn1ncc2c(NCc3ccc(S(=N)(N)=O)cc3)ccnc21 (centres unmarked) [Compound 2A, 4-(((1-ethyl-1H-pyrazolo[3,4-b]pyridin-4-yl)amino)methyl)benzene sulfonimidamide]
10 to 100 | 100 to 1000 | 10 to 100 | ≥ 1000 | CCn1nc(Br)c2c(NCc3ccc(S(=N)(N)=O)cc3)ccnc21 (centres unmarked) [Compound 2B, 4-(((3-bromo-1-ethyl-1H-pyrazolo[3,4-b]pyridin-4-yl)amino)methyl)benzenesulfonimidamide]
≥ 1000 | ≥ 1000 | 100 to 1000 | ≥ 1000 | CCn1ncc2c(NCc3ccc(S(N)(=O)=NC)cc3)ccnc21 (centres unmarked) [Compound 3A, 4-(((1-ethyl-1H-pyrazolo[3,4-b]pyridin-4-yl)amino)methyl)-N′-methylbenzenesulfonimidamide]
≥ 1000 | 100 to 1000 | – | ≥ 1000 | CCn1ncc2c(NCc3ccc(S(N)(=O)=NC#N)cc3)ccnc21 (centres unmarked) [Compound 12G, N′-cyano-4-(((1-ethyl-1H-pyrazolo[3,4-b]pyridin-4-yl)amino)methyl)benzenesulfonimidamide]
100 to 1000 | < 10 | < 10 | ≥ 1000 | N#CCn1nc(Cl)c2c(NCc3ccc(S(N)(=O)=NC#N)cc3)ccnc21 (centres unmarked) [Compound 12H, 4-(((3-chloro-1-(cyanomethyl)-1H-pyrazolo[3,4-b]pyridin-4-yl)amino)methyl)-N′-cyanobenzenesulfonimidamide]
100 to 1000 | < 10 | < 10 | ≥ 1000 | C#CCn1nc(Cl)c2c(NCc3ccc(S(N)(=O)=NC#N)cc3)ccnc21 (centres unmarked) [Compound 12I, 4-(((3-chloro-1-(prop-2-yn-1-yl)-1H-pyrazolo[3,4-b]pyridin-4-yl)amino)methyl)-N′-cyanobenzenesulfonimidamide]
100 to 1000 | < 10 | < 10 | ≥ 1000 | C#CCn1nc(Cl)c2c(NCc3ccc([S@](=N)(=O)NC#N)cc3)ccnc21 [Compound 12J, (R)-4-(((3-chloro-1-(prop-2-yn-1-yl)-1H-pyrazolo[3,4-b]pyridin-4-yl)amino)methyl)-N-cyanobenzenesulfonimidamide]
100 to 1000 | < 10 | < 10 | 100 to 1000 | C#CCn1nc(Cl)c2c(NCc3ccc([S@@](=N)(=O)NC#N)cc3)ccnc21 [Compound 12K, (S)-4-(((3-chloro-1-(prop-2-yn-1-yl)-1H-pyrazolo[3,4-b]pyridin-4-yl)amino)methyl)-N-cyanobenzenesulfonimidamide]
≥ 1000 | ≥ 1000 | 10 to 100 | ≥ 1000 | CCn1nc(Cl)c2c(NCC3CCN(S(=N)(=O)CCC#N)CC3)ccnc21 (centres unmarked) [Compound 14E, 3-(4-(((3-chloro-1-ethyl-1H-pyrazolo[3,4-b]pyridin-4-yl)amino)methyl)piperidine-1-sulfonimidoyl)propanenitrile]
≥ 1000 | 10 to 100 | < 10 | ≥ 1000 | C#CCn1nc(Cl)c2c(NCC3CCN(S(N)(=O)=NC)CC3)ccnc21 (centres unmarked) [Compound 15D, 4-(((3-chloro-1-(prop-2-yn-1-yl)-1H-pyrazolo[3,4-b]pyridine-4-yl)amino)methyl)-N′-methylpiperidine-1-sulfonimidamide]
100 to 1000 | < 10 | < 10 | ≥ 1000 | N#CCn1nc(Cl)c2c(NCC3CCN([S@@](N)(=O)=NC#N)CC3)ccnc21 [Compound 15E, (S)-4-(((3-chloro-1-(cyanomethyl)-1H-pyrazolo[3,4-b]pyridine-4-yl)amino)methyl)-N′-cyanopiperidine-1-sulfonimidamide]
100 to 1000 | < 10 | < 10 | 100 to 1000 | N#CCn1nc(Cl)c2c(NCC3CCN([S@](N)(=O)=NC#N)CC3)ccnc21 [Compound 15F, (R)-4-(((3-chloro-1-(cyanomethyl)-1H-pyrazolo[3,4-b]pyridin-4-yl)amino)methyl)-N′-cyanopiperidine-1-sulfonimidamide]
≥ 1000 | 100 to 1000 | < 10 | ≥ 1000 | CN=[S@@](N)(=O)N1CCC(CNc2ccnc3c2c(Cl)nn3CC#N)CC1 [Compound 15H, (R)-4-(((3-chloro-1-(cyanomethyl)-1H-pyrazolo[3,4-b]pyridin-4-yl)amino)methyl)-N′-methylpiperidine-1-sulfonimidamide]
